The values that follow come from patent US11220482B2, “Aminopyridinemethanol compounds and their use” (UNIVERSITE AMIENS PICARDIE JULES VERNE, priority 2017, dated 2022).

As a reminder, the IC50 is the concentration that gives 50% inhibition.

Counter-ions that a name gives are not always drawn. Like-named read-outs stand apart in the source and are kept apart here.

The subject of test [1] is P. falciparum 3D7. The test is described as follows: P. falciparum growth inhibition assay, second round (SYBR Green I, ICEstimator). It is filed as cell-based, Plasmodium falciparum.
In test [2] the test system is Plasmodium falciparum W2. The test can be described thus: Plasmodium falciparum susceptibility assay, first round (SYBR Green I). The test is classed as cell-based.
The test system of test [3] is Plasmodium falciparum 3D7. The description is as above. The test is classed as cell-based.
The mark [4] stands for this setting: 48 h, read-out: IC50 (nM) Plasmodium falciparum 3D7 (converted).
The mark [5] stands for this setting: Plasmodium falciparum, 3D7, 48 h.
Where [6] appears, read: W2, first round, 48-h incubation, strain resistant to CQ, sensitive to MQ, read-out: IC50 (nM) Plasmodium falciparum W2 (converted).
Where [7] appears, read: 3D7, first round, 48-h incubation, strain susceptible to CQ, decreased susceptibility to MQ, read-out: IC50 (nM) Plasmodium falciparum 3D7 (converted).

As for `O[C@@H](CNCCCC(F)(F)F)c1cc(-c2ccc(C(F)(F)F)cc2)nc(C(F)(F)F)c1` [Compound 1p, (R)-2-((4,4,4-trifluorobutyl)amino)-1-(2-(trifluoromethyl)-6-(4-(trifluoromethyl)phenyl)pyridin-4-yl)ethan-1-ol], the 50% inhibitory concentration (IC50) was 43 nM in test [1] (setting [4]) and under 50 nM in test [1] (setting [5]). For `O[C@@H](CNCCCN1CCN(C(c2ccccc2)c2ccccc2)CC1)c1ccc(-c2ccc(C(F)(F)F)cc2)nc1C(F)(F)F` [Compound 30p, (R)-2-((3-(4-Benzhydrylpiperazin-1-yl)propyl)amino)-1-(2-(trifluoromethyl)-6-(4-(trifluoromethyl)phenyl)pyridin-3-yl)ethanol], the IC50 was 89.6 nM in test [2] (setting [6]) and 84.9 nM in test [3] (setting [7]).

In the case of `COC[C@H](Cc1ccccc1)NC[C@@H](O)c1ccc(-c2ccc(C(F)(F)F)cc2)nc1C(F)(F)F` [Compound 30k, (S)-2-(((S)-1-methoxy-3-phenylpropan-2-yl)amino)-1-(2-(trifluoromethyl)-6-(4-(trifluoromethyl)phenyl)pyridin-3-yl)ethanol], the IC50 in test [2] (setting [6]) is 351 ± 50.7 nM; in test [3] (setting [7]), 65.3 ± 8.4 nM. The like results for `O[C@@H](CNCCNC(c1ccccc1)c1ccccc1)c1ccc(-c2ccc(C(F)(F)F)cc2)nc1C(F)(F)F` [Compound 30j, (R)-2-((2-(Benzhydrylamino)ethyl)amino)-1-(2-(trifluoromethyl)-6-(4-(trifluoromethyl)phenyl)pyridin-3-yl)ethanol] were, in that order, 171 nM and 92.1 nM. As for `O[C@H](CNCCCCCCF)c1cc(-c2ccc(C(F)(F)F)cc2)nc(C(F)(F)F)c1` [Compound 1q, (S)-2-((6-fluorohexyl)amino)-1-(2-(trifluoromethyl)-6-(4-(trifluoromethyl)phenyl)pyridine-4-yl)ethan-1-ol], the IC50 was 31.4 nM in test [1] (setting [4]) and under 50 nM in test [1] (setting [5]). Consider `CCCCNC[C@@H](O)c1ccc(-c2ccc(C(F)(F)F)cc2)nc1C(F)(F)F` [Compound 30a, (S)-2-(Butylamino)-1-(2-(trifluoromethyl)-6-(4-(trifluoromethyl)phenyl)pyridin-3-yl)ethanol], for which the IC50 is 132 ± 10.3 nM in test [2] (setting [6]) and 479 ± 38.2 nM in test [3] (setting [7]). The like results for `O[C@@H](CNCCNC(c1ccccc1)c1ccccc1)c1cc(-c2ccc(C(F)(F)F)cc2)nc(C(F)(F)F)c1` [Compound 1h, (R)-2-((2-Benzhydrylamino)ethylamino)-1-(2-(trifluoromethyl)-6-(4-(trifluoromethyl)phenyl)pyridin-4-yl)ethanol] were, in that order, 5.9 nM and 25 nM. For `COC[C@H](Cc1ccccc1)NC[C@H](O)c1ccc(-c2ccc(C(F)(F)F)cc2)nc1C(F)(F)F` [Compound 30l, (R)-2-(((S)-1-methoxy-3-phenylpropan-2-yl)amino)-1-(2-(trifluoromethyl)-6-(4-(trifluoromethyl)phenyl)pyridin-3-yl)ethanol] the same measures were 258 nM and 414 nM. For `COC[C@H](Cc1ccccc1)NC[C@H](O)c1cc(-c2ccc(C(F)(F)F)cc2)nc(C(F)(F)F)c1` [Compound 1j, (R)-2-(((S)-1-Methoxy-3-phenylpropan-2-yl)amino)-1-(2-(trifluoromethyl)-6-(4-(trifluoromethyl)phenyl)pyridin-4-yl)ethanol] the same measures were 14.4 nM and 32.8 nM.

For `O[C@H](CN[C@H](COCC1CC1)Cc1ccccc1)c1cc(-c2ccc(C(F)(F)F)cc2)nc(C(F)(F)F)c1` [Compound 1u, (S)-2-(((S)-1-(cyclopropylmethoxy)-3-phenylpropan-2-yl)amino)-1-(2-(trifluoromethyl)-6-(4-(trifluoromethyl)phenyl)pyridin-4-yl)ethan-1-ol], in test [1] (setting [5]), the concentration for half-maximal inhibition (IC50) was 9.31 ± 2.16 nM. As to `CCCCCCNC[C@H](O)c1cc(-c2ccc(C(F)(F)F)cc2)nc(C(F)(F)F)c1` [Compound 1d, (R)-2-(Hexylamino)-1-(2-(trifluoromethyl)-6-(4-(trifluoromethyl)phenyl)pyridin-4-yl)ethanol], the figures for the half-inhibitory concentration (IC50) in test [2] (setting [6]) and in test [3] (setting [7]) were 8.3 nM and 32.3 nM, respectively. Take `O[C@H](CNCCCN1CCN(C(c2ccccc2)c2ccccc2)CC1)c1cc(-c2ccc(C(F)(F)F)cc2)nc(C(F)(F)F)c1` [1m•HCl, (S)-2-((3-(4-benzhydrylpiperazin-1-yl)propyl)amino)-1-(2-(trifluoromethyl)-6-(4-(trifluoromethyl)phenyl)pyridin-4-yl)ethanol hydrochloride]: the IC50 in test [2] (setting [6]) is 67 ± 9.3 nM. Turning to `CCCCCCCNC[C@@H](O)c1ccc(-c2ccc(C(F)(F)F)cc2)nc1C(F)(F)F` [Compound 30g, (S)-2-(Heptylamino)-1-(2-(trifluoromethyl)-6-(4-(trifluoromethyl)phenyl)pyridin-3-yl)ethanol], the IC50 was 25.2 ± 1.2 nM in test [2] (setting [6]) and 97 ± 14 nM in test [3] (setting [7]). As for `O[C@@H](CNCCCN1CCN(C(c2ccccc2)c2ccccc2)CC1)c1cc(-c2ccc(C(F)(F)F)cc2)nc(C(F)(F)F)c1` [1n•HCl, (R)-2-((3-(4-benzhydrylpiperazin-1-yl)propyl)amino)-1-(2-(trifluoromethyl)-6-(4-(trifluoromethyl)phenyl)pyridin-4-yl)ethanol hydrochloride], the IC50 in test [3] (setting [7]) is 125 nM. Regarding `CCCCCCCNC[C@H](O)c1ccc(-c2ccc(C(F)(F)F)cc2)nc1C(F)(F)F` [Compound 30h, (R)-2-(Heptylamino)-1-(2-(trifluoromethyl)-6-(4-(trifluoromethyl)phenyl)pyridin-3-yl) ethanol], the results for the IC50 in test [2] (setting [6]) and in test [3] (setting [7]) were 31.7 nM and 519 nM, respectively. The like results for `CCCCCNC[C@H](O)c1ccc(-c2ccc(C(F)(F)F)cc2)nc1C(F)(F)F` [Compound 30d, (R)-2-(Pentylamino)-1-(2-(trifluoromethyl)-6-(4-(trifluoromethyl)phenyl)pyridin-3-yl)ethanol] were, in that order, 551 nM and 558 nM. Consider `O[C@H](CNCCCC(F)(F)F)c1cc(-c2ccc(C(F)(F)F)cc2)nc(C(F)(F)F)c1` [Compound 1o, (S)-2-((4,4,4-trifluorobutyl)amino)-1-(2-(trifluoromethyl)-6-(4-(trifluoromethyl)phenyl)pyridin-4-yl)ethan-1-ol], for which the values for the IC50 in test [1] (setting [4]) and in test [1] (setting [5]) were 39.3 ± 5.83 nM and under 50 nM, respectively. In the case of `CCN(CC)CCCC(C)Nc1ccnc2cc(Cl)ccc12` (centres unmarked) [CQ, Chloroquine, reference compound], the IC50 in test [2] (W2, 48 h, read-out: IC50 (nM) Plasmodium falciparum W2) was 199 ± 27 nM; in test [3] (3D7, 48 h, read-out: IC50 (nM) Plasmodium falciparum 3D7), 75.9 ± 3 nM. In the case of `CCCCCCCNC[C@H](O)c1cc(-c2ccc(C(F)(F)F)cc2)nc(C(F)(F)F)c1` [Compound 1f, (R)-2-(Heptylamino)-1-(2-(trifluoromethyl)-6-(4-(trifluoromethyl)phenyl)pyridin-4-yl)ethanol], the IC50 was 3.5 nM in test [2] (setting [6]) and 54.4 nM in test [3] (setting [7]). Take `CCCCCCNC[C@@H](O)c1cc(-c2ccc(C(F)(F)F)cc2)nc(C(F)(F)F)c1` [Compound 1c, (S)-2-(Hexylamino)-1-(2-(trifluoromethyl)-6-(4-(trifluoromethyl)phenyl)pyridin-4-yl)ethanol]: in test [3] (setting [7]), the IC50 is 47.1 ± 13.2 nM. Consider `CCCCNC[C@H](O)c1ccc(-c2ccc(C(F)(F)F)cc2)nc1C(F)(F)F` [Compound 30b], for which the IC50 in test [2] (setting [6]) is 523 nM; in test [3] (setting [7]) it was 1380 nM. The like results for `O[C@H](CNCCNC(c1ccccc1)c1ccccc1)c1ccc(-c2ccc(C(F)(F)F)cc2)nc1C(F)(F)F` [Compound 30i, (S)-2-((2-(Benzhydrylamino)ethyl)amino)-1-(2-(trifluoromethyl)-6-(4-(trifluoromethyl)phenyl)pyridin-3-yl)ethanol] were, in that order, 248 ± 36 nM and 32.9 nM. Consider `O[C@H](CNCCCN1CCN(C(c2ccccc2)c2ccccc2)CC1)c1cc(-c2ccc(C(F)(F)F)cc2)nc(C(F)(F)F)c1` [Compound 1m, (S)-2-((3-(4-benzhydrylpiperazin-1-yl)propyl)amino)-1-(2-(trifluoromethyl)-6-(4-(trifluoromethyl)phenyl)pyridin-4-yl)ethanol], for which the IC50 in test [3] (setting [7]) was 126 nM. Consider `CCCCCCNC[C@H](O)c1ccc(-c2ccc(C(F)(F)F)cc2)nc1C(F)(F)F` [Compound 30f, (R)-2-(Hexylamino)-1-(2-(trifluoromethyl)-6-(4-(trifluoromethyl)phenyl)pyridin-3-yl)ethanol], for which the IC50 in test [2] (setting [6]) was 523 nM; in test [3] (setting [7]), 575 nM. The like results for `CCCCCCNC[C@@H](O)c1ccc(-c2ccc(C(F)(F)F)cc2)nc1C(F)(F)F` [Compound 30e, (S)-2-(Hexylamino)-1-(2-(trifluoromethyl)-6-(4-(trifluoromethyl)phenyl)pyridin-3-yl)ethanol] were, in that order, 27.2 ± 9.3 nM and 170 ± 24 nM. `CCCCCCCNC[C@@H](O)c1cc(-c2ccc(C(F)(F)F)cc2)nc(C(F)(F)F)c1` [Compound 1e, (S)-2-(Heptylamino)-1-(2-(trifluoromethyl)-6-(4-(trifluoromethyl)phenyl)pyridin-4-yl)ethanol]: the IC50 was 5.6 nM in test [2] (setting [6]) and 17.7 nM in test [3] (setting [7]).

Turning to `O[C@H](CNCCNC(c1ccccc1)c1ccccc1)c1cc(-c2ccc(C(F)(F)F)cc2)nc(C(F)(F)F)c1` [Compound 1g, (S)-2-((2-(Benzhydrylamino)ethyl)amino)-1-(2-(trifluoromethyl)-6-(4-(trifluoromethyl)phenyl)pyridin-4-yl)ethanol], the results for the IC50 in test [2] (setting [6]) and in test [3] (setting [7]) were 13.1 ± 1 nM and 22.4 ± 2.5 nM, respectively. For `O[C@H](CNCCCN1CCN(C(c2ccccc2)c2ccccc2)CC1)c1ccc(-c2ccc(C(F)(F)F)cc2)nc1C(F)(F)F` [Compound 30o] the same measures were 212 ± 38.6 nM and 111 ± 8.3 nM. For `CCCCCNC[C@H](O)c1cc(-c2ccc(C(F)(F)F)cc2)nc(C(F)(F)F)c1` [Compound 1b, (R)-2-(Pentylamino)-1-(2-(trifluoromethyl)-6-(4-(trifluoromethyl)phenyl)pyridin-4-yl)ethanol] the same measures were 7.2 nM and 41.8 nM.
